In data set [1] the target is Cyclin-dependent kinase 5/CDK5 activator 1 (Homo sapiens, UniProt Q00535). Put plainly: Inhibition of N-terminal full length human recombinant CDK5/p25 expressed in baculovirus-infected Sf21 cells incubated for 60 mins in presence of ATP by kinase-glo luminescent assay.
Data set [2] relates to Bacillus subtilis. In words: Antibacterial activity against Bacillus subtilis ATCC 6051 assessed as reduction in bacterial growth incubated for 18 to 24 hrs by broth microdilution method. The format is functional, organism-based. A general note: Broth dilution looks for growth in wells or tubes with falling amounts of substance.
Data set [3] deals with Glycogen synthase kinase-3 beta (Homo sapiens, UniProt P49841). Put plainly: Inhibition of N-terminal His6-tagged human recombinant GSK3beta expressed in baculovirus-infected Sf21 cells incubated for 60 mins in presence of ATP by ADP-glo analysis.
For data set [4], the target named is Casein kinase I isoform delta (Homo sapiens, UniProt P48730). In words: Inhibition of N-terminal GST-tagged human recombinant CK1delta (1 to 294 residues) expressed in Escherichia coli incubated for 60 mins in presence of ATP by Kinase-glo luminescent assay. A general note: Kinase-Glo reads ATP consumption through a luciferase reaction.
The test system of data set [5] is Bacillus subtilis. Put plainly: Antibacterial activity against Bacillus subtilis ATCC 6633 assessed as reduction in bacterial growth incubated for 18 to 24 hrs by broth microdilution method. The data set is classed as functional, organism-based.
Another data set relates to Nakaseomyces glabratus. Put plainly: Antifungal activity against Candida glabrata assessed as reduction in fungal growth incubated for 24 hrs by serial dilution method. The data set is classed as functional.
The target of data set [6] is Rho-associated protein kinase 1 (Homo sapiens, UniProt Q13464). Put plainly: Inhibition of ROCK1 (unknown origin) incubated for 1 hr by FRET based Z'-lyte assay.
The nature of data set [7]: Immunosuppressive activity in Kunming mouse splenocyte assessed as reduction in ConA-stimulated T-lymphocytes proliferation at 20 uM incubated for 72 hrs by CCK-8 assay relative to control. The data set is classed as functional, T-cell. Set-up: scale not given: the % may be the effect or the level left. (In general: Formazan colour is commonly taken as a measure of viable cells.)

For data set [8], the target named is Rho-associated protein kinase 2 (Homo sapiens, UniProt O75116). Put plainly: Inhibition of ROCK2 (unknown origin) incubated for 1 hr by FRET based Z'lyte assay.
Data set [9] addresses Delta-type opioid receptor (Homo sapiens, UniProt P41143). Put plainly: Binding affinity to DOR (unknown origin) assessed as inhibition constant.
In data set [10] the test system is RAW264.7. In words: Antiinflammatory activity against mouse RAW264.7 cells assessed as inhibition of LPS-induced nitric oxide production at 25 uM measured after 24 hrs relative to control. The data set is classed as functional. Set-up: scale not given: the % may be the effect or the level left.
The subject of data set [11] is RAW264.7. Put plainly: Antiinflammatory activity against mouse RAW264.7 cells assessed as inhibition of LPS-induced TNF-alpha production at 25 uM measured after 24 hrs by ELISA method relative to control. The format is functional. Set-up: scale not given: the % may be the effect or the level left.
The nature of data set [12]: Cytotoxicity against rat NRK-52E cells assessed as inhibition of cell growth incubated for 24 hrs by CCK-8 assay. The data set is classed as toxicity, cell-based.
Data set [13] relates to RAW264.7. Put plainly: Antiinflammatory activity against mouse RAW264.7 cells assessed as inhibition of LPS-induced TNF-alpha secretion at 20 uM after 24 hrs by ELISA relative to control. Set-up: scale not given: the % may be the effect or the level left. The format is functional.
Data set [14] relates to RAW264.7. In words: Antiinflammatory activity against mouse RAW264.7 cells assessed as inhibition of LPS-induced TNF-alpha secretion at 4 uM after 24 hrs by ELISA relative to control. The format is functional. Set-up: scale not given: the % may be the effect or the level left.
The nature of data set [15]: Immunosuppressive activity in Kunming mouse splenocyte assessed as inhibition of LPS-induced B-lymphocytes proliferation at 20 uM incubated for 72 hrs by CCK-8 assay relative to control. The format is functional. Set-up: scale not given: the % may be the effect or the level left.

Each structure is given as a SMILES string. Converted amounts (≈) assume the structure as drawn.

Sequence of Rho-associated protein kinase 2 (O75116 whole entry): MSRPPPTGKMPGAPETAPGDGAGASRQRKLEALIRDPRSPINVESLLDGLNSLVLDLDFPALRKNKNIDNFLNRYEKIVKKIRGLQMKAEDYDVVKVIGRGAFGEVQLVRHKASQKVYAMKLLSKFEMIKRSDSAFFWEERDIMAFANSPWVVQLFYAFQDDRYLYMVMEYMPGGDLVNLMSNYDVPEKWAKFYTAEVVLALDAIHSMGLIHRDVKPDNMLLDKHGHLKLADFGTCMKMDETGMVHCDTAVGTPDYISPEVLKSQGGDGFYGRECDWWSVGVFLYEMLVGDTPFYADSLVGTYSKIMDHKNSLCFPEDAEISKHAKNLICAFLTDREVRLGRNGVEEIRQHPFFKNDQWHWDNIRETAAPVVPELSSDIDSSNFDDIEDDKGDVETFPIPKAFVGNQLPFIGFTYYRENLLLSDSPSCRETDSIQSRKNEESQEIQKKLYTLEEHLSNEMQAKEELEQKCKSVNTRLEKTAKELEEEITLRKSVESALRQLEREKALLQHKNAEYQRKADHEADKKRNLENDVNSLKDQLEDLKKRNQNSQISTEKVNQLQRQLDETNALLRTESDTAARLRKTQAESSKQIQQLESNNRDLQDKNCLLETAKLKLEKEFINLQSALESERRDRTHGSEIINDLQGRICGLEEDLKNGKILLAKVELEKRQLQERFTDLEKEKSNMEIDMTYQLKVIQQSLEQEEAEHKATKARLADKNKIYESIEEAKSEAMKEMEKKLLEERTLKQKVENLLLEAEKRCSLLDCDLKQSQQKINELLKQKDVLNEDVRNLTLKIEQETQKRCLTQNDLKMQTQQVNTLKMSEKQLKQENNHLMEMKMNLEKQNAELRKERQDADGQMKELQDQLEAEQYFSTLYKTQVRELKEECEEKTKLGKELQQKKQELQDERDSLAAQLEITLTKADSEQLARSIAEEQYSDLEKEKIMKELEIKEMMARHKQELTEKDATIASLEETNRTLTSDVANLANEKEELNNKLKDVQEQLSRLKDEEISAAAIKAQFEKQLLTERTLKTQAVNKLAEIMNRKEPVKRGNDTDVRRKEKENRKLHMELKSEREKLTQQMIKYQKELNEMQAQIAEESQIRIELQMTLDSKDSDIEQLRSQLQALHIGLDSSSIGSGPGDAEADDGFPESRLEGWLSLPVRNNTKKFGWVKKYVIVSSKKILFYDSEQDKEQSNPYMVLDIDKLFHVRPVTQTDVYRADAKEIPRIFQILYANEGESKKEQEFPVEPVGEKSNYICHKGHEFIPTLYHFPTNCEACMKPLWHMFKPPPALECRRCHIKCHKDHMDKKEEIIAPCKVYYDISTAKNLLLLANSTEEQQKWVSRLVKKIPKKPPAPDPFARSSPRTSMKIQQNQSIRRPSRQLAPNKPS
Sequence of Delta-type opioid receptor (P41143 whole entry): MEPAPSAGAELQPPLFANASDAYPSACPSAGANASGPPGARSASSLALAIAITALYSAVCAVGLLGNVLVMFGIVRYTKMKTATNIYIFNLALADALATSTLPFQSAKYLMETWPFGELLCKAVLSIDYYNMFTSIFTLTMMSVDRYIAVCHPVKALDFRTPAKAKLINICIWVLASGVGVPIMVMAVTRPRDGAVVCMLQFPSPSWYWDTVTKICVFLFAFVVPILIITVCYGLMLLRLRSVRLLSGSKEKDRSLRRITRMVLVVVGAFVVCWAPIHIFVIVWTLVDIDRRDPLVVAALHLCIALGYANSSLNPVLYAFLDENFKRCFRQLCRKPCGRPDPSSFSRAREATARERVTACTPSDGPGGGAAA
Sequence of Glycogen synthase kinase-3 beta (P49841 whole entry, the tested form may be a part, canonical isoform): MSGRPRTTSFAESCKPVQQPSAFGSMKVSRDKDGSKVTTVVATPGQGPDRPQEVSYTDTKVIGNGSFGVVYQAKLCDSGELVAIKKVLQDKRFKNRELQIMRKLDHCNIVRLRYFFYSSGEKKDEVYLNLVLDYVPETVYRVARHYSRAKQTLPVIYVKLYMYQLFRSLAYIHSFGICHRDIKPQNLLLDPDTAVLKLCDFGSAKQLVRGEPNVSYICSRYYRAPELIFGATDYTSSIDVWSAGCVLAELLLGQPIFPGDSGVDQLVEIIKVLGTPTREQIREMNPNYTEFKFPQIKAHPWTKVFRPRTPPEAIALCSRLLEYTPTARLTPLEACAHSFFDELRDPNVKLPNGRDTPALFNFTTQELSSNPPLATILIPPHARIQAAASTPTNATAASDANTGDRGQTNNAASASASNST
Sequence of Rho-associated protein kinase 1 (Q13464 whole entry): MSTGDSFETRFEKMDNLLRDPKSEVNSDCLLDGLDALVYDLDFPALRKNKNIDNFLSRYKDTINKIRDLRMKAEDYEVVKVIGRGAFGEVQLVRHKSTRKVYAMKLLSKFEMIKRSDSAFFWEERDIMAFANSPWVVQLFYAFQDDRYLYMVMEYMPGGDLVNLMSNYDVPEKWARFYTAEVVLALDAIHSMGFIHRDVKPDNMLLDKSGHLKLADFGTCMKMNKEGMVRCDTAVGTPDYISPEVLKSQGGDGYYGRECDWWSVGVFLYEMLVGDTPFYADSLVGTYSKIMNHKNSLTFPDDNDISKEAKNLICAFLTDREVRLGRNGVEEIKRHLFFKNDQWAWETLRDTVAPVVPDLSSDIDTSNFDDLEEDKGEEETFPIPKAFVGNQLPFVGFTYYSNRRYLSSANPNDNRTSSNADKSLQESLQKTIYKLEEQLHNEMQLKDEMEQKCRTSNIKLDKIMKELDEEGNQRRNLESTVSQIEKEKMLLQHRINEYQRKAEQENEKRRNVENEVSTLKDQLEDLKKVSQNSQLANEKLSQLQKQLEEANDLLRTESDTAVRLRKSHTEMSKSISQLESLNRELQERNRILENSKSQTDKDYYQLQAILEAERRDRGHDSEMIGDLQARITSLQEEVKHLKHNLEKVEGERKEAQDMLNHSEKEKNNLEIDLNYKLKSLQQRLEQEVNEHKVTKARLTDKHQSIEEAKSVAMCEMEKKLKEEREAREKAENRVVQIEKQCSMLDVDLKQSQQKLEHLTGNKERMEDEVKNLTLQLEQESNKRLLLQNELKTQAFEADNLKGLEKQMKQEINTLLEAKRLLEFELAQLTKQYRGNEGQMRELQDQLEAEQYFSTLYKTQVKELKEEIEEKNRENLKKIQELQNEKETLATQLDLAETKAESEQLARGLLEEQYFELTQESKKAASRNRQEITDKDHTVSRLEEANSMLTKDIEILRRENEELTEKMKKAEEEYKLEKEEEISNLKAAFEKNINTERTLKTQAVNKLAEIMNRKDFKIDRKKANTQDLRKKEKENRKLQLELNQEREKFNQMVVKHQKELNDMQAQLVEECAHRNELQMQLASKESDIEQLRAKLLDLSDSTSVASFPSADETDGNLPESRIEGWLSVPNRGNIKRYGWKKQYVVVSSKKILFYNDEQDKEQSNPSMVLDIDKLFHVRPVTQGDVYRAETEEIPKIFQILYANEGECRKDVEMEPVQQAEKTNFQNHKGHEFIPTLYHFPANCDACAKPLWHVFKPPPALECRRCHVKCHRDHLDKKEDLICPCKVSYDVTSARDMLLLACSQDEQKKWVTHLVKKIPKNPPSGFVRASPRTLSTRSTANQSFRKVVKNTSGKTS
Sequence of Cyclin-dependent kinase 5/CDK5 activator 1 (Q00535 whole entry): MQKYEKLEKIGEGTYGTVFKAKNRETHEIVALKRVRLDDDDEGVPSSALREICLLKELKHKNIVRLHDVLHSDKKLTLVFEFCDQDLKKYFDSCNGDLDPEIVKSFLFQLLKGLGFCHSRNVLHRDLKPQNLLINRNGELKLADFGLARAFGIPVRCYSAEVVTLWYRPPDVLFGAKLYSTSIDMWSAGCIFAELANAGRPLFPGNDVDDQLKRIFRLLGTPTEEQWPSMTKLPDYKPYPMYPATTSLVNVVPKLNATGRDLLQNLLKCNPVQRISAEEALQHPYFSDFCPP
Sequence of Cyclin-dependent kinase 5/CDK5 activator 1 (Q15078 whole entry, further chain): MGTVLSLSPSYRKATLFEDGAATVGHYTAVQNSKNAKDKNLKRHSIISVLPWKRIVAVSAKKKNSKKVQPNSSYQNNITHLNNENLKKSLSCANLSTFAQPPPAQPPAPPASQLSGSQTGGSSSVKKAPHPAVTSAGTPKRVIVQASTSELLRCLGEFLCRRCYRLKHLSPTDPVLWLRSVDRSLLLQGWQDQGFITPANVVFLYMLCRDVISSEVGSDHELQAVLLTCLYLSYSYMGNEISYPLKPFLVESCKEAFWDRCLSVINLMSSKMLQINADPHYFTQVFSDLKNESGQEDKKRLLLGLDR
Sequence of Casein kinase I isoform delta (P48730 whole entry, the tested form may be a part, canonical isoform): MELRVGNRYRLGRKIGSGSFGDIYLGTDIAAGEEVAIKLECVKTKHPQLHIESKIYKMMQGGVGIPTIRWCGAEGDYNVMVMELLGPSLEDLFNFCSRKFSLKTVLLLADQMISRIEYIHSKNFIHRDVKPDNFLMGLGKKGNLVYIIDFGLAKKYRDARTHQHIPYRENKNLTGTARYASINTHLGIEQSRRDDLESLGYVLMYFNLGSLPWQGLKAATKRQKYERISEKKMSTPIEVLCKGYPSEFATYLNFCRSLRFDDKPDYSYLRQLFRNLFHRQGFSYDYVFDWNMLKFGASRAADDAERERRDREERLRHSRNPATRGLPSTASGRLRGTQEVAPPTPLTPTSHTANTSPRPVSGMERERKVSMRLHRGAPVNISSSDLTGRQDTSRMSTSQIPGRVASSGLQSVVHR

`O=C(O)c1[nH]c2c(=O)oc3cc(O)c(O)cc3c2c1-c1ccc(O)c(O)c1`: the concentration for half-maximal inhibition (IC50) in data set [1] was determined as 10.9 µM; in the data set with Bacillus subtilis [2] it was 3 µM; in data set [3], 1.6 µM; in [4], 2.3 µM; with Bacillus subtilis [5] it was 3.8 µM.

As to `C[C@H](N)[C@H](CCCCCCCCCCCC/C=C/C(O)CCCCCCC[C@@H]1NCCc2cc(O)c(O)cc21)O[C@@H]1O[C@@H](CO)[C@@H](O)[C@@H](O)[C@@H]1O` (some centres not stated), the MIC with Nakaseomyces glabratus is 25 µg/mL (≈ 34.6 µM).

Consider `CC(=O)NCCc1cc(O)c(O)cc1[C@@H](NC(C)=O)C(=O)c1ccc(O)c(O)c1`, for which the results for the IC50 in data set [6] and in data set [8] were 29.1 µM and 17.9 µM, respectively. For the same molecule, in data set [7], the Activity amounted to 17.01%.

On to `N=C(N)NCCCC1=NCCc2cc(O)c(O)cc21`, for which the Ki in data set [9] was 0.485 µM.

Take `Oc1ccc(-c2cnccn2)cc1O`: in the data set on RAW264.7 [10], the Activity was found to be 42.11%.

Turning to `Cc1cncc(-c2ccc(O)c(O)c2)n1`, in the data set with RAW264.7 [11], the Activity turned out to be 47.36%.

With `CC(=O)NCCc1ccc2c(c1)O[C@]1(NC(C)=O)[C@H](O2)c2cc(O)c(O)cc2[C@@H](c2ccc(O)c(O)c2)[C@@H]1NC(C)=O`, in [12], the IC50 at 24 h came to 30 µM.

On to `O=CN1CCc2cc(O)c(O)cc2C1`, for which the Activity was found to be 31.63% in the data set on RAW264.7 [13], 20.9% in the data set with RAW264.7 [14], 24.18% in data set [15] and 31.27% in [7].

Usually IC50 stands for the concentration at which inhibition is half-maximal. What is called MIC is the least concentration at which growth counts as inhibited. The term Ki denotes a measure of affinity in units of concentration, obtained from inhibition or displacement.

Source of the values: ChEMBL document CHEMBL5390243, “Catecholamine Derivatives: Natural Occurrence, Structural Diversity, and Biological Activity” (J Nat Prod, 2023).
